Reference: patent US20250381163A1, “Chelating Agents for Use in Cancer Therapy” (priority 2022, published 2025)
Entries after “also recorded” stand apart in the source; their conditions may differ.

What was measured:
Beas-2B cells = experiment: Resazurin cell survival assay, metal-induced chemoresistance and chelators; format: cell-based; conditions: for Reversal of metal-induced chemoresistance to doxorubicin, non-saturating chelator dose: DMPS 40 μM, EDTA 20 μM, FIG. 5
Protocol: (§1) Resazurin cell survival assays were used to determine cell survival upon chemotherapeutic and chelator challenge. 2×10^3 cells were seeded in 100 μl in 96 well plates. 24 hrs later medium was replaced with 90 μl of metal mixtures or control medium for another 24 hrs. Next a combination of chelators and chemotherapy as indicated in the figures was prepared and added as an additional 10 μl to the cells. Cells were then incubated for 72 hr (Beas-2B) or 96 hr (A549 and MCF7). A stock solution of resazurin (Sigma) was made as 880 μM in PBS adjusted to pH 7.8/filtered 0.2 μm and kept for 6 months at 4° C. Medium was replaced with 75 μl of resazurin solution (final concentration 44 μM). Cells were incubated at 37° C. for 3-4 hrs and fluorescence emission was measured at 583 nm with excitation at 555 nm using a spectrophotometer (Beckman). To test the effects of metals on doxorubicin directly, doxorubicin was incubated with metals in solution 24 hrs as a 10× solution, prior to adding to cells, whereas control cells were incubated in metals as described before.
IC50 values were calculated using Graphpad Prism. Error bars represent standard deviation of triplicate measurements.

A549 lung cancer cells = experiment: as above; format: cell-based; design: dose or concentration left out as unconfirmed; conditions: FIG. 3C
Protocol: as §1

MCF7 breast cancer cells = experiment: as above; format: cell-based; design: dose or concentration left out as unconfirmed; conditions: FIG. 3B
Protocol: as §1

H2170 cells = experiment: Cell survival assay, metal exposure and chelation treatment; format: cell-based; conditions: H2170 pre-treated with metals 1:128, then DMPS and doxorubicin for 72 hrs; FIG. 16
Protocol: as §1
Overall, the methods disclosed in the first example were used in the second example as well. […]
(§2) Hep3B and H2177 cells were obtained from ATCC and were maintained in DMEM high Glucose (Invitrogen) and 10% FCS (Gibco) at 37° C. and 5% CO2. […] Cells were subsequently counted and added to 96 well plates for survival assays as previously described. […]

p53 [1] = experiment: p53 folding status in cells (immunoprecipitation with folding antibodies / western blot); format: cell-based; conditions: Beas-2B cells incubated with metals in presence or absence of chelator; FIG. 20, 21
Protocol: (§3) Cells were seeded in 6 well plates at 30% cell density. 24 hrs later, medium was replaced with the metal mixtures as indicated. Cells were incubated for 24 hrs and lysed with 100 μl NP-40 lysis buffer (100 mM NaCl 100 mM Tris pH8, 1% NP-40) for 15 min on ice. Cell pellets were discarded in centrifugation (10 min max) and 10% of input was taken for western blot and mixed with 4×SB. The remaining lysate was subjected to immunoprecipitation with p53 Ab240 Ab (1 ul per condition) using 30 μl NP-40 buffer washed goat-anti-mouse magnetic Dynabeads (Thermo Fisher). Lysates and beads were tumbled at 4° C. for 2 hrs and washed 3× with NO-40 buffer. Beads were taken up in 2×SB and together with inputs denatured at 95° C. in a heat block. 8% SDS page gels were used to run all of the samples on western blot. Gels were transferred on nitrocellulose membrane, blocked with milk (TBS-Tween) for 1 hr tumbling and incubated in p53 DO-1 (Santa Cruz Ab, 1:2000) ON at 4° C. The membrane was washed 3× with TBS-tween and secondary Ab (anti-mouse 700, Li-Cor) was used 1:10.000 to incubate the blot for 1 hr at room temperature. The blot was washed with TBS-tween 3× and the signal was measured in a Li-Cor Odyssey. Quantification was measured in the software of Li-Cor and plotted corrected for input levels of each sample.

A549 p53 KO cells = experiment: Resazurin cell survival assay in p53 KO clone; format: cell-based; conditions: p53 KO clone of A549; DMPS (150 μM); doxorubicin; FIG. 3D
Protocol: A549, MCF7 and Beas-2B cells were obtained from ATCC (https://www.atcc.org). Cells were maintained in DMEM high Glucose (Invitrogen) and 10% FCS (Gibco) at 37° C. and 5% CO2. A549 p53 KO cells were generated using a CRISPR p53 KO construct (pLV-U6g-EPCG with target sequence TCCATTGCTTGG GACGGCAAGG, Sigma). Cell lines were selected for GFP expression using FACS sorting followed by clonal selection in neomycin (600 ng/ml, Sigma).
as §1, with “To test the effects of metals on doxorubicin directly, doxorubicin was incubated with metals in solution 24 hrs as a 10× solution, prior to adding to cells, whereas control cells were incubated in metals as described before.” left out

BxPC-3 cells = experiment: Cell survival assay, metal exposure and chelation treatment; format: cell-based; conditions: BxPC3 pre-treated with metals 1:128; for Reversal of metal-induced chemoresistance to 5-FU: 150 μM chelator and 5-FU for 72 hrs, FIG. 17; for Effect of chelator on resistance/survival with nab-paclitaxel: 150 μM chelator and nab-paclitaxel for 72 hrs, FIG. 18
Protocol: as §1
Overall, the methods disclosed in the first example were used in the second example as well.

p53 [2] = format: biochemical; conditions: Beas-2B lysates with metals 30 min, then chelator 1 hr; naïve and loaded lysates; FIG. 23
158 mutant p53 = experiment: p53 folding in transfected Hep3B cells; format: cell-based; conditions: Hep3B transfected with 158 mutant p53; metals followed by miaDMSA; FIG. 22
Protocol: as §3, with “The membrane was washed 3× with TBS-tween and secondary Ab (anti-mouse 700, Li-Cor) was used 1:10.000 to incubate the blot for 1 hr at room temperature.” left out
as §2

WT p53 = experiment: p53 folding in transfected Hep3B cells; format: cell-based; conditions: Hep3B transfected with WT p53; metals followed by miaDMSA; FIG. 22
Protocol: as §3, with “The membrane was washed 3× with TBS-tween and secondary Ab (anti-mouse 700, Li-Cor) was used 1:10.000 to incubate the blot for 1 hr at room temperature.” left out
as §2

[3] = metal-loaded Beas-2B, DMPS 150 μM, EDTA 75 μM (equivalent chelation capacity), alone or combined, FIG. 4
[4] = Beas-2B pre-treated with metals 1:128, then chelator and doxorubicin for 72 hrs, FIG. 14, 15

SMILES | Reversal of metal-induced chemoresistance to doxorubicin, non-saturating chelator dose (Beas-2B cells; alone or combined) | Reversal of metal-induced chemoresistance to doxorubicin (Beas-2B cells; [3]) | Prevention of metal-induced unfolding of p53 (p53 [1]) | Reversal of metal-induced chemoresistance to doxorubicin (Beas-2B cells; [4]) | Reversal of metal-induced chemoresistance to 5-FU (BxPC-3 cells) | Effect of chelator on resistance/survival with nab-paclitaxel (BxPC-3 cells) | Refolding of unfolded p53 (p53 [2]) | other results
O=S(=O)(O)CC(S)CS (centres unmarked) [DMPS, 2,3-dimercapto-1-propanesulfonic acid] | not able to restore chemosensitivity substantially | almost completely restored; also recorded: reversed chemoresistance completely | prevents unfolding | – | – | – | – | Restoration of sensitivity to doxorubicin (reversal of metal-induced chemoresistance) (Beas-2B cells; Beas2B cells primed with 1:128 and 1:256 metals, DMPS 150 μM, FIG. 3A): completely restored; Reversal of metal-induced chemoresistance to doxorubicin (A549 lung cancer cells): reversed the chemoresistance completely; Reversal of metal-induced chemoresistance to doxorubicin (MCF7 breast cancer cells): reversed the chemoresistance completely; Reversal of metal-induced chemoresistance to doxorubicin (H2170 cells): only partially reversed; Metal induced chemoresistance and its reversal by chelator (A549 p53 KO cells): less pronounced than in native A549 cells
O=C(O)C(S)C(S)C(=O)O (centres unmarked) [DMSA, 2,3-dimercaptosuccinic acid] | – | – | prevents unfolding | only partially reversed | reversed | reduce survivability | – | –
O=C(O)CN(CCN(CC(=O)O)CC(=O)O)CC(=O)O [EDTA, ethylenediaminetetraacetic acid] | not able to restore chemosensitivity substantially | able to restore chemosensitivity although not to the extent as seen for DMPS; also recorded: reversed the resistance only partially | – | – | – | – | clearly able to refold some of the p53 | –
COc1cccc2c1C(=O)c1c(O)c3c(c(O)c1C2=O)C[C@@](O)(C(=O)CO)C[C@@H]3O[C@H]1C[C@H](N)[C@H](O)[C@H](C)O1 [doxorubicin] | – | – | – | – | – | – | – | IC50 of doxorubicin in metal-loaded cells relative to cells without added metals (Beas-2B cells; Beas-2B loaded with metals (1:128), FIG. 6): more than 10 times; IC50 of doxorubicin (Beas-2B cells; Beas-2B without added metals, FIG. 6): low
CC(C)CCOC(=O)[C@@H](S)[C@@H](S)C(=O)O [miaDMSA, monoisoamylDMSA] | – | – | – | highly potent chelator; also recorded: completely reversed | reversed | reduce survivability; also recorded: reduction of resistance | clearly able to refold some of the p53 | Prevention of metal-induced unfolding of p53 (158 mutant p53): prevented or reduced; Prevention of metal-induced unfolding of p53 (WT p53): prevented or reduced
